Experimental data as given in patent publication US20210177722A1, “Phytic Acid Ester Derivative” (NATIONAL UNIVERSITY CORPORATION KUMAMOTO UNIVERSITY, priority 2018, published 2021).

Tests used:
AMPK = assay: Western blotting (2), anti-pAMPK antibody, Jurkat cell; type: cell-based, human; conditions: 1 μM or 10 μM, 8 hours or 24 hours
Protocol: In this example, in the same manner as in Example 4, the action mechanism for killing cells by Pro-IP6 was checked by Wester blotting using a Jurkat cell and various antibodies. Jurkat cells (1×10^5 cells/well, culture fluid: 500 μL) were seeded in a 24-well plate to be cultured overnight. Thereafter, DMSO (1%, Fujifilm Wako Pure Chemical Corporation), an aqueous solution (1%) of IP6 (final concentration 10 μM, Sigma Aldrich), or a DMSO solution (1%) of Pro-IP6 (final concentration: 1 μM or 10 μM) was added thereto, followed by culturing for 8 hours or 24 hours. A supernatant was removed, the resultant was washed with 1× PBS (−) once, Laemmli sample buffer was added thereto, and the resultant was boiled at 100° C. for […] to dissolve the cells. The resultant was subjected to electrophoresis and then transferred onto a membrane (Millipore). […] Detection was performed using ImmunoStar LD (Fujfilm Wako Pure Chemical Corporation).

PARP-1 = assay: Western blotting (1), anti-PARP-1 antibody, Jurkat cell; type: cell-based, human; conditions: 10 μM
Protocol: In this example, the action mechanism for killing cells by Pro-IP6 was studied by Wester blotting using a Jurkat cell and various antibodies. Jurkat cells (1×10^5 cells/well, culture fluid: 500 μL) were seeded in a 24-well plate to be cultured overnight. Thereafter, DMSO (1%, Fujifilm Wako Pure Chemical Corporation), an aqueous solution (1%) of IP6 (final concentration: 10 μM, Sigma Aldrich), or a DMSO solution (1%) of Pro-IP6 (final concentration: 1 μM or 10 μM) was added thereto, followed by culturing for 8 hours or 24 hours. A supernatant was removed, the resultant was washed with 1× PBS (−) once, Laemmli sample buffer was added thereto, and the resultant was boiled at 100° C. for 1 hour to dissolve the cells. […] Detection was performed using ImmunoStar LD (Fujifilm Wako Pure Chemical Corporation).

HeLa cell = assay: Quantitative determination of IP6 in cell (LC/MS of IP6 methyl ester); type: cell-based; conditions: HeLa cells, 10 μM, 30 minutes
Protocol: In this example, incorporation of Pro-IP6 into a HeLa cell was quantitatively determined.
HeLa cells (5×10^5 cells/well, culture fluid: 1 mL) were seeded in a 3.5 cm dish to be cultured for 24 hours. Thereafter, DMSO (1%, Fujifilm Wako Pure Chemical Corporation), an aqueous solution (1%) of IP6 (final concentration: 10 μM, Sigma Aldrich), or a DMSO solution (1%) of Pro-IP6 (final concentration: 10 μM) synthesized in Example 1 was added thereto, and the resultant was cultured for another 30 minutes. HeLa cells were cultured with neither IP6 nor Pro-IP6 added, followed by adding the same amount of DMSO thereto, and the resultant was used as a negative control.
Thereafter, the resultant was washed with 1× PBS (−) once, and the resultant cells were scraped with a cell scraper, transferred to a 1.5 mL tube, and washed with 1× PBS (−) three times. To the thus obtained precipitate, 350 μl of MeOH (Fujifilm Wako Pure Chemical Corporation) and 1% NP-40 (Nacalai Tesque, Inc.) were added, followed by sonication (10 minutes). After equilibrating a column (Oasis WAX 1cc, Waters) with MeOH (1 mL) and H2O (1 mL), a disrupted cell extract was added thereto. Thereafter, the column was washed with 50% MeOH (1 mL), and eluted with 50% MeOH (200 μL×2) containing 2 mol/L of HCl (Fujifilm Wako Pure Chemical Corporation). The thus obtained eluate was concentrated, and dissolved in MeOH (50 μL), and trimethylsilyldiazomethane (200 μl, Tokyo Chemical Industry Co., Ltd.) was added thereto, followed by stirring at 50° C. for 1 hour under argon atmosphere. The reaction was stopped by adding H2O (100 μL). Through a reaction of trimethylsilyidiazomethane with IP6, IP6 methyl ester is obtained.
The thus obtained sample (IP6 methyl ester) was measured by LC/MS [column: MastroC18 2.1 mm×100 mm, […] (Shimadzu GLC Ltd.), mobile phase: 0.1% formic acid solution (Fujifilm Wako Pure Chemical Corporation), acetonitrile (Fujifilm Wako Pure Chemical Corporation)] [LC:LC-20AD (Shimadzu), MS: amaZon speed (BRUKER)].

[1] = tested on: Jurkat cell (human T-lymphocyte cell); assay: MTT assay, Jurkat cell; type: cell-based
Protocol: (§1) In this example, the cytotoxic effect of Pro-IP6 on four types of blood cancer cell lines and a cell derived from a healthy person was examined by MTT assay. […] It is possible to check viability of cultured cells by MTT assay. Cancer cell lines (1.74×10^4 cells/well, culture fluid: 200 μL) • MT-2 cell (HTLV transformed human T cell leukemia cell) • […] cell (human T-lymphoblastoid cell) • Jurkat cell (human T-lymphocyte cell) • K562 cell (chronic myelogenous leukemia cell) Each of the above-described types of cells was seeded in a 96-well plate, and was cultured for 8 hours for each of the various cancer cell lines and for 16 hours for PMBC. Thereafter, DMSO (1%, Fujifilm Wako Pure Chemical Corporation), an aqueous solution (1%) of IP6 (final concentration: 1 μM or 10 μM, Sigma Aldrich), or a DMSO solution (1%) of Pro-IP6 (final concentration: 1 μM or 10 μM) was added thereto, followed by culturing for 8 hours or 24 hours. An MTT reagent (Dojindo Laboratories, 1.1 mg/mL) was added in an amount of 50 μL per well, and the resultant was cultured for another 4 hours. The thus precipitated crystal was collected, a supernatant was removed, and 100 μL of DMSO was added thereto to completely dissolve. The resultant solution was measured for an absorbance (550 nm).

[2] = tested on: MT-2 cell (HTLV transformed human T cell leukemia cell); assay: MTT assay, MT-2 cell; type: cell-based; conditions: 1 μM or 10 μM, 8 hours or 24 hours
Protocol: as §1

Q: Which “activation of AMPK (pAMPK)” value (AMPK) does the source give for `CCCC(=O)OCOP(=O)(OCOC(=O)CCC)O[C@H]1[C@H](OP(=O)(OCOC(=O)CCC)OCOC(=O)CCC)[C@@H](OP(=O)(OCOC(=O)CCC)OCOC(=O)CCC)[C@H](OP(=O)(OCOC(=O)CCC)OCOC(=O)CCC)[C@@H](OP(=O)(OCOC(=O)CCC)OCOC(=O)CCC)[C@H]1OP(=O)(OCOC(=O)CCC)OCOC(=O)CCC` [Pro-IP6, myo-inositol hexaphosphate dodecakis(butyryloxymethyl) ester] here?
A: activates AMPK

Q: And the “cleavage of PARP-1 (induction of apoptosis)” value (PARP-1)?
A: cleavage of PARP-1 and Caspase-3 was observed

Q: And the “incorporation into HeLa cell (IP6 methyl ester by LC/MS vs negative control)” value (HeLa cell)?
A: well incorporated

Q: What about the “amount of IP6 methyl ester observed in cell relative to that of IP6” value (HeLa cell; LC/MS) of the same molecule?
A: not less than 200 times

Q: And the “cytotoxic effect at 10 μM” value [1]?
A: most of the cells were killed

Q: What about the “lowering of relative cell viability” value ([1]; Jurkat cell, 1 μM or 10 μM, 8 hours or 24 hours) of the same molecule?
A: ≥ 25%

Q: What about the “lowering of relative cell viability” value [2] of the same molecule?
A: ≥ 25%
